{
  "source": "ChEMBL document CHEMBL1201862",
  "about": "“PubChem BioAssay data set” (2004)",
  "key": {"[1]": {"target": "Serine/threonine-protein kinase TAO1 (Homo sapiens, UniProt Q7L7X3)", "sequence (Q7L7X3 whole entry)": "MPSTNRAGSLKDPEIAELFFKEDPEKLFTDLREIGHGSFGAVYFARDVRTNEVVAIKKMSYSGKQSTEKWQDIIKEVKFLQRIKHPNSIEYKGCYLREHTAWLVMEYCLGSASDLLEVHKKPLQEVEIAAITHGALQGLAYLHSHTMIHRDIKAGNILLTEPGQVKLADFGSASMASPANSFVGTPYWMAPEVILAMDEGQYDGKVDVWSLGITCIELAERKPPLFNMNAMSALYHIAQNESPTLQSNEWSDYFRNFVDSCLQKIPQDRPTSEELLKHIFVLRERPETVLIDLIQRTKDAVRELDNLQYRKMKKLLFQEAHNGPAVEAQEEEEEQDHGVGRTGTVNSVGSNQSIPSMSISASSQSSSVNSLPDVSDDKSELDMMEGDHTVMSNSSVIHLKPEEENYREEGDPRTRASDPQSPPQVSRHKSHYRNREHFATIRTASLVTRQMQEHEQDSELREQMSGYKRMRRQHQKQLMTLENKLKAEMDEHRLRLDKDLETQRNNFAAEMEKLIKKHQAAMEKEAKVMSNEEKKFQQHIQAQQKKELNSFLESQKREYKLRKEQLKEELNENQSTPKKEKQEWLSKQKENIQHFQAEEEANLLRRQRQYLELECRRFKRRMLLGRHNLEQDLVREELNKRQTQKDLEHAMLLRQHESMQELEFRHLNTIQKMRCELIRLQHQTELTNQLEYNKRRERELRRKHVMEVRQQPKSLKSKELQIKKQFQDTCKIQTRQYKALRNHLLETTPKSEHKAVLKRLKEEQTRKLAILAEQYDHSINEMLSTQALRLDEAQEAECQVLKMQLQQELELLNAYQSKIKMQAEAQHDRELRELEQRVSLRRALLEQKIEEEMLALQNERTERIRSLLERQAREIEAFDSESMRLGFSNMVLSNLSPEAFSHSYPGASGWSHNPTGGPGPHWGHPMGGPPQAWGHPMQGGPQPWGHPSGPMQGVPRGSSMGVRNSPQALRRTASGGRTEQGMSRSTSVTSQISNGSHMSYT", "type": "functional"}, "[2]": {"target": "Tyrosine-protein kinase BTK (Homo sapiens, UniProt Q06187)", "sequence (Q06187 whole entry)": "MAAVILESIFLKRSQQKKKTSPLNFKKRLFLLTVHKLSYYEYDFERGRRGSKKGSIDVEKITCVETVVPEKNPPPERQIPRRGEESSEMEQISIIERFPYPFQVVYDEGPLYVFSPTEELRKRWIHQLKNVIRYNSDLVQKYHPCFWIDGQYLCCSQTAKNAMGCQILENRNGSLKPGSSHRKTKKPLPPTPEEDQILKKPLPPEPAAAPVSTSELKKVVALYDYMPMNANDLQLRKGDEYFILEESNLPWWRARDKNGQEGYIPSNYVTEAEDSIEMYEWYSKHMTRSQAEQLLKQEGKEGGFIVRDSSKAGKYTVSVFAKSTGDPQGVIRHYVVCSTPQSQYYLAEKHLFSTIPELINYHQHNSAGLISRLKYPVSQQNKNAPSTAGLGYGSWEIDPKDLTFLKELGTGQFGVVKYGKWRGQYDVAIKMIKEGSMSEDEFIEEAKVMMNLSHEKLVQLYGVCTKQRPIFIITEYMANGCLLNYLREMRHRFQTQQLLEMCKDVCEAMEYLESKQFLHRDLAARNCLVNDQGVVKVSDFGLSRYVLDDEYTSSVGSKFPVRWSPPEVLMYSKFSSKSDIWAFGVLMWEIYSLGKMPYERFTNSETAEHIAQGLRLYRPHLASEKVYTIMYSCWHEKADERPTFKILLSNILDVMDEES", "type": "functional"}, "Exodeoxyribonuclease V": {"target": "T1, Exodeoxyribonuclease V (Escherichia coli (strain K12), UniProt P04993+P07648+P08394)", "T1 sequence (P04993 whole entry)": "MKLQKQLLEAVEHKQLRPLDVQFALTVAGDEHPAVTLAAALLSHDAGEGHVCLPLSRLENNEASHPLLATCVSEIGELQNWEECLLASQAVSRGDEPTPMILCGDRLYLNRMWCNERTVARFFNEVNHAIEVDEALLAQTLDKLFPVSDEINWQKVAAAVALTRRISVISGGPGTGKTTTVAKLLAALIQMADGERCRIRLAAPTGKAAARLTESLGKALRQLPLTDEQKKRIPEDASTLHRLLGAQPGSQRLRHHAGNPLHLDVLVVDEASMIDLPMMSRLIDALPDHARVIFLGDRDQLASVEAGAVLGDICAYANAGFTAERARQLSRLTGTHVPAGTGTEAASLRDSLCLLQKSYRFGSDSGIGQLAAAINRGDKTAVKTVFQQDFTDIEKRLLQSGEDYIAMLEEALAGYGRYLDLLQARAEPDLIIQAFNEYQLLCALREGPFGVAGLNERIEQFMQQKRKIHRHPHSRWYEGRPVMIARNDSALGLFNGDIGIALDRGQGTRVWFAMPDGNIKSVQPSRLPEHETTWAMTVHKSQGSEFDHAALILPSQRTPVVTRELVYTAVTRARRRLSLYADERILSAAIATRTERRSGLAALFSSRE", "T1 sequence (P07648 whole entry)": "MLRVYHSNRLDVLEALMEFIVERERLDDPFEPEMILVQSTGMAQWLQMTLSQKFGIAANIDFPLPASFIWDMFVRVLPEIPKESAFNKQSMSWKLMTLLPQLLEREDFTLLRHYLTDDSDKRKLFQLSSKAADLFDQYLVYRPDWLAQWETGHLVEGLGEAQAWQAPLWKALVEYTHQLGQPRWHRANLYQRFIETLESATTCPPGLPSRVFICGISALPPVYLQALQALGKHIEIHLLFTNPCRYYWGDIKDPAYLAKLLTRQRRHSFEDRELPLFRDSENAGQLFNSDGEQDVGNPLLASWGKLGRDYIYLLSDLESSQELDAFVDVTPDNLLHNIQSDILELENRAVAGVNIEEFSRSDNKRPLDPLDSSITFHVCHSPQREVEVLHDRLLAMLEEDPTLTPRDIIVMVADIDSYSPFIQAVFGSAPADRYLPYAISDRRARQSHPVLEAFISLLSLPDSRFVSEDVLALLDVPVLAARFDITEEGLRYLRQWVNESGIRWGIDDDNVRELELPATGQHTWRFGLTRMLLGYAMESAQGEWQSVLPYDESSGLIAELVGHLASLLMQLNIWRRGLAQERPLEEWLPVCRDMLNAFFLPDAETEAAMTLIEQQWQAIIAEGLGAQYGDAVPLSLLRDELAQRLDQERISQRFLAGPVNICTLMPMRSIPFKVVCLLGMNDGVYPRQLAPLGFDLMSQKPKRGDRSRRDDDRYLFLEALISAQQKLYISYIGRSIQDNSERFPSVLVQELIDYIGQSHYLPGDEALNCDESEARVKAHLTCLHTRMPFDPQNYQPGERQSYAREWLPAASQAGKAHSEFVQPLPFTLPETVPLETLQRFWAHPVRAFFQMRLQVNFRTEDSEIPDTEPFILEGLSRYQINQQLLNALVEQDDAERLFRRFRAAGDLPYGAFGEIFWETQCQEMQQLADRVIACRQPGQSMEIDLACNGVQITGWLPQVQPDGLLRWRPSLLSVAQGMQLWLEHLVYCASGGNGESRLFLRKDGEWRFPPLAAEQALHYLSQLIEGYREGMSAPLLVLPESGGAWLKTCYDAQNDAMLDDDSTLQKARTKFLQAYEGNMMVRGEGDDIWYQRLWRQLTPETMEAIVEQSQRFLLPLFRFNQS", "T1 sequence (P08394 whole entry)": "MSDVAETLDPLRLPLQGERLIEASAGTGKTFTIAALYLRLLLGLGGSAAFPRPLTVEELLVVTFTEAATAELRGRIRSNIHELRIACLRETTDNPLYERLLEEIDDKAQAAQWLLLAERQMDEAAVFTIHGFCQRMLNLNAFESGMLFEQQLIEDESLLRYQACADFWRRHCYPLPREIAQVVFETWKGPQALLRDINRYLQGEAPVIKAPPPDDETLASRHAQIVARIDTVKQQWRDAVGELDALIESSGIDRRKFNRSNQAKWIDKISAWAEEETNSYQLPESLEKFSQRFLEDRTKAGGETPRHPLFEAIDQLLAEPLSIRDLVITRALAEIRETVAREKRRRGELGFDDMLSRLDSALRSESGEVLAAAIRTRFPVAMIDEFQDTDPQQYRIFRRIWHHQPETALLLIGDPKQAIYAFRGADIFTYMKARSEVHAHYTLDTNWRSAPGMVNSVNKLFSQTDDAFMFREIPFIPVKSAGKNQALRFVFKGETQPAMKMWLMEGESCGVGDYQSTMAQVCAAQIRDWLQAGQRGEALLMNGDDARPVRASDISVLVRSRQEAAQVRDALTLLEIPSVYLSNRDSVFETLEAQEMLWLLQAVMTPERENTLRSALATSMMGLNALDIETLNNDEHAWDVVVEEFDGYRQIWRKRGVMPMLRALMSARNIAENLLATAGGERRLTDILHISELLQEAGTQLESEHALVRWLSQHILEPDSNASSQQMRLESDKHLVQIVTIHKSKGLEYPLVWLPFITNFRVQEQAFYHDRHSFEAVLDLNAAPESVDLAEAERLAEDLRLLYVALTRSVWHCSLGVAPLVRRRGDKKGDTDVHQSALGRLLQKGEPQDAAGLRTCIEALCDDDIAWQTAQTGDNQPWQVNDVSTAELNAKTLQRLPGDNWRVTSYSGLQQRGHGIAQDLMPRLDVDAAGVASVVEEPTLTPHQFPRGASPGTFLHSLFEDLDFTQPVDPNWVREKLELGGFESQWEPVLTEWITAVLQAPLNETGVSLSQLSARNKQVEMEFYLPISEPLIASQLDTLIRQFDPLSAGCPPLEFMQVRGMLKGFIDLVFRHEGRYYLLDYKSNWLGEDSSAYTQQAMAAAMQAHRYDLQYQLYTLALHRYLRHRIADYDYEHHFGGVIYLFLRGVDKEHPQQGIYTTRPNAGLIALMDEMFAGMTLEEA", "test": "E. coli RecBCD inhibitors, dose response, counter-screen for AddAB inhibitor project, absorbance, V66 E. coli, mutant T4 phage (AID 492957)", "type": "functional, cell-based, Escherichia coli str. K-12 substr. MG1655"}, "[3]": {"test": "C. albicans growth with fluconazole, confirmation, fluorescence, retest (AID 2467)", "type": "functional, cell-based"}, "[4]": {"test": "non-specific cell cytotoxicity, dose response, cytotoxicity control for PAX8 inhibitor project, plate reader, dry powder samples (AID 743021)", "type": "functional, cell-based"}},
  "note": "The source made the active and inactive calls.",
  "data": [
    {"smiles": "O=C1NC(=O)C(c2c[nH]c3ccccc23)=C1c1nc(N2CCNCC2)nc2ccccc12", "values": [
      {"measurement": "Ki", "setting": "[1]", "result": "1 µM (active)"},
      {"measurement": "Ki", "setting": "[2]", "result": "> 6.31 µM (inactive)"}
    ]},
    {"smiles": "CCCC(=O)NC(c1ccc(N(C)C)cc1)c1ccc2cccnc2c1O", "note": "(stereo not given)", "values": [
      {"measurement": "IC50", "setting": "Exodeoxyribonuclease V", "result": "> 119 µM (inactive)"},
      {"measurement": "EC50", "setting": "[3]", "result": "626 nM (active)"}
    ]},
    {"smiles": "O=C(NC1=C(NC2CCS(=O)(=O)C2)C(=O)c2ccccc2C1=O)c1ccccc1", "note": "(stereo not given)", "values": [
      {"measurement": "AC50", "setting": "[4]", "result": "36.5 µM (active)"}
    ]}
  ]
}
